Measurements published in patent publication US20040048369A1, “Control of inward-rectifier K+ ion channels” (priority 2002, published 2004).
Read-outs that look alike come from different tables or passages of the source. One block for each compound: values may come before it.

Experiments:
IRK1 channels [1] = target: T1, IRK1 channels (Mus musculus, UniProt P35561); assay: Block of IRK1 currents by intracellular chemicals, inside-out patches of Xenopus oocytes injected with IRK1 cRNA; assay type: cell-based; conditions: for inward rectification with intracellular metal ion chelator: each at 5 mM, pH 7.6, phosphate buffer
T1 construct: expressed in transfected cells; host or cells: Xenopus laevis oocytes injected with IRK1 cRNA; inside-out patches
T1 sequence (P35561 1-428): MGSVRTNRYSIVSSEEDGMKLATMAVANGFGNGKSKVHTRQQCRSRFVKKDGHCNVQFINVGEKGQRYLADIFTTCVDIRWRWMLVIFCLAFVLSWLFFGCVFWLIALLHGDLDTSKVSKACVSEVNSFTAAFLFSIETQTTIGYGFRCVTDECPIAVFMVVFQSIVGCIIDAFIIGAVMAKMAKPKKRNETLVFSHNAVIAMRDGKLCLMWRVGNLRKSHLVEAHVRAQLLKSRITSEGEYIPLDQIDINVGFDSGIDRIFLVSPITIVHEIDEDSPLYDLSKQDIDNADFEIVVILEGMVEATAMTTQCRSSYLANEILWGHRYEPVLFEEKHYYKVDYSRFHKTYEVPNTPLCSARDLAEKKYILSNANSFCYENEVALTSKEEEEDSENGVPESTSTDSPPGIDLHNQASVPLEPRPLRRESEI
Experimental: IRK1 cDNA (Kubo et al., 1993) was cloned into the pGEM-Hess plasmid (IRK1-pGEMHess construct, provided by J. Yang). RNA was synthesized using T7 polymerase (Promega Corp., Madison, Wis.) from Nhe1-linearized cDNAs. Oocytes harvested from Xenopus laevis (Xenopus One, Ann Arbor, Mich.) were incubated in a solution containing NaCl, 82.5 mM; KCI, 2.5 mM; MgCl2, 1.0 mM; HEPES (pH 7.6), 5.0 mM and collagenase, 2-4 mg/ml. The oocyte preparation was agitated at 80 rpm for 60-90 minutes. It was then rinsed thoroughly and stored in a solution containing NaCl, 96 mM; KCl, 2.5 mM; CaCl2, 1.8 mM; MgCl2, 1.0 mM; HEPES (pH 7.6), 5 mM and gentamicin, 50 μg/ml. Defolliculated oocytes were selected and injected with RNA at least 2 and 16 hours, respectively, after collagenase treatment. All oocytes were stored at 18° C.
(§1) IRK1 currents were recorded from inside-out membrane patches of Xenopus oocytes (injected with IRK1cRNA) with an Axopatch 200B amplifier (Axon Instruments, Inc., Foster City, Calif.), filtered at 5 kHz, and sampled at 25 kHz using an analog-to-digital converter (DigiData 1200, Axon Instruments) interfaced with a personal computer. pClamp6 software (Axon Instruments) was used to control the amplifier and acquire the data. During current recording, the voltage across the membrane patch was first hyperpolarized from the 0 mV holding potential to −100 mV, and then stepped to various test voltages, or stepped directly from the holding potential. […] Background leak current correction was carried out as previously described (Lu and MacKinnon, Nature 371:243-246 (1994); Guo and Lu, 2000a). To effectively perfuse the patch, the tip of the patch pipette (3 MΣ) was immersed in a stream of intracellular solution exiting one of ten glass capillaries (ID=0.2 mm) mounted in parallel.
All recording solutions contained 100 mM K^+ contributed by KCl, K2EDTA, K2HPO4, KH2PO4, and KOH. The phosphate-buffered intracellular solution contained 5 mM K2EDTA (unless specified otherwise), and 10 mM “K2HPO4+KH2PO4” in a ratio yielding the desired pH, and sufficient KCl to bring total K^+ concentration to 100 mM (Guo and Lu, 2000a). The HEPES-buffered intracellular solution, as used in FIG. 3, contained (100 mM K^+ (Cl^−+OH^−), 5 mM EDTA and 10 mM HEPES, pH 7.2 (adjusted with KOH). The HEPES-buffered extracellular solution contained 100 mM K^+ (Cl^−+OH^−), 0.3 mM CaCl2, 1.0 mM MgCl2, and 10 mM HEPES, pH 7.6 (adjusted with KOH). In the phosphate-buffered extracellular solution, HEPES was replaced by an equal concentration of “K2HPO4+KH2PO4” in a ratio yielding pH 7.6. The divalent cation-free extracellular solution contained 5 mM EDTA. All chemicals were purchased from Fluka Chemical Corp.
In all cases the intracellular solutions contained 100 mM K^+, 5 mM EDTA and 10 mM phosphate (pH 7.6) in addition to the tested chemicals, while the extracellular solution contained 100 mM K^+, 0.3 mM Ca^2+, 1 mM Mg^2+, 10 mM phosphate (pH 7.6). The currents were corrected for background current.

IRK1 channels [2] = target: T1, IRK1 channels; assay: Relaxation/block of inward IRK1 currents by extracellular chemicals, inside-out patches; assay type: cell-based; conditions: 10 mM HEPES, 3 μM HEP or 0.3 μM piperazine
Experimental: as §1
The phosphate-buffered intracellular solution contained 5 mM K2EDTA (unless specified otherwise), and 10 mM “K2HPO4+KH2PO4” in a ratio yielding the desired pH, and sufficient KCl to bring total K^+ concentration to 100 mM (Guo and Lu, 2000a). The HEPES-buffered intracellular solution, as used in FIG. 3, contained (100 mM K^+ (Cl^−+OH^−), 5 mM EDTA and 10 mM HEPES, pH 7.2 (adjusted with KOH). The HEPES-buffered extracellular solution contained 100 mM K^+ (Cl^−+OH^−), 0.3 mM CaCl2, 1.0 mM MgCl2, and 10 mM HEPES, pH 7.6 (adjusted with KOH). In the phosphate-buffered extracellular solution, HEPES was replaced by an equal concentration of “K2HPO4+KH2PO4” in a ratio yielding pH 7.6. The divalent cation-free extracellular solution contained 5 mM EDTA. All chemicals were purchased from Fluka Chemical Corp.
Since solutions in the quoted study were HEPES buffered, currents elicited with the voltage protocol used to produce the data in FIG. 12 were evaluated with no added divalent cations in the extracellular solution to determine whether the current relaxation was due to the use of extracellular HEPES.
The channel block associated with extracellular HEPES was examined to determine whether it could also be caused by residual contaminants. Intra- and extracellular solutions were buffered with 10 mM phosphate. […] The ratio of currents at the end and the beginning of voltage pulses (Iend/Ibgn) was plotted against membrane voltage.

Kir2.1 = Kir2.1 (Homo sapiens, UniProt P63252); conditions: 100 μM; cited from earlier work
Kir1.1 = Kir1.1 (Homo sapiens, UniProt P48048); conditions: 100 μM; cited from earlier work
Shaker channel = Shaker channel (Drosophila melanogaster, UniProt P08510); conditions: 100 μM; cited from earlier work
[3] = tested on: Kir2.1 (E224 and E299 replaced with neutral ones); conditions: 100 μM; cited from earlier work
[4] = Goodman & Gilman's; cited from earlier work
IRK1 channels [5] = target: T1, IRK1 channels; conditions: 2000b, cited from earlier work
[6] = intracellular blocker, Kd at 0 mV, mean±sem, read-out: Kd (0 mV), fit of the Woodhull equation

Chain of Kir1.1 (P48048 whole entry): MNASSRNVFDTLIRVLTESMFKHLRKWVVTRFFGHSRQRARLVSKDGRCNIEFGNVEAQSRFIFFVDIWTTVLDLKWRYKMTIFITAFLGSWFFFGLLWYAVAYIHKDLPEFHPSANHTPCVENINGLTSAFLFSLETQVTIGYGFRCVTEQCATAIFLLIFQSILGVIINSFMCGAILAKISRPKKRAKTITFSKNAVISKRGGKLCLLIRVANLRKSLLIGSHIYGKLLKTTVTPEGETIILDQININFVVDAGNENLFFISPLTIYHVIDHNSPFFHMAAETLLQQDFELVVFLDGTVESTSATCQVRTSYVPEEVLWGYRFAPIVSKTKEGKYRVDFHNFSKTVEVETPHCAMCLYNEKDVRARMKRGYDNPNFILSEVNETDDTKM
Chain of Shaker channel (P08510 whole entry): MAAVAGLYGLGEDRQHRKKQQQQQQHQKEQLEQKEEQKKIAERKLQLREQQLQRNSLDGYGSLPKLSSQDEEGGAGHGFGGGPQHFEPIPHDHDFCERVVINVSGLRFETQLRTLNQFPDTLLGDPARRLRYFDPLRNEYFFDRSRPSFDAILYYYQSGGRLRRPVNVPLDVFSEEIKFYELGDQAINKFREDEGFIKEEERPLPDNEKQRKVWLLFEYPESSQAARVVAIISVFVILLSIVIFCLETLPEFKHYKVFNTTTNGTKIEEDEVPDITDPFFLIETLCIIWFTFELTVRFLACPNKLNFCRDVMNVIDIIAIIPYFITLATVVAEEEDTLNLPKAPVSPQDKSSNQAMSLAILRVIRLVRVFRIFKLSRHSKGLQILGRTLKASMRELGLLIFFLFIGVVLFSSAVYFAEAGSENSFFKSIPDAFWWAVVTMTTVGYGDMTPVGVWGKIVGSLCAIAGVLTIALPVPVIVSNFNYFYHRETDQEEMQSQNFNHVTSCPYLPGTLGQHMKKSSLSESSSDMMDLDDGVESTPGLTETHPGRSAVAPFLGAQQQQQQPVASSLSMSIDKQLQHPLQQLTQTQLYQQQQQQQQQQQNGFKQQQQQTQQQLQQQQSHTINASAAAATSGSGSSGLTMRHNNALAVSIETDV
Chain of Kir2.1 (P63252 whole entry): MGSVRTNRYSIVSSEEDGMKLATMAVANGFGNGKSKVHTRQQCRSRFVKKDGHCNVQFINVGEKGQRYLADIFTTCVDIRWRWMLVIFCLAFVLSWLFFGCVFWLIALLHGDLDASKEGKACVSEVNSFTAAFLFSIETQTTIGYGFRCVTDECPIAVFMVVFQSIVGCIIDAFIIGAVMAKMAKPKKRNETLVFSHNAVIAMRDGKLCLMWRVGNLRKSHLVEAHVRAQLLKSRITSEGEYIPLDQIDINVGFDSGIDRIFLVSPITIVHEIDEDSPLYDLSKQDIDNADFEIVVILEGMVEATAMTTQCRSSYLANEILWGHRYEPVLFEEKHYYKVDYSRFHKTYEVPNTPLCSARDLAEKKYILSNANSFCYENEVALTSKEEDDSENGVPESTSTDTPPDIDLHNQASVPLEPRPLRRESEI

SMILES: O=C(O)CN(CCN(CC(=O)O)CC(=O)O)CC(=O)O [EDTA, ethylene diamine tetraacetic acid]
inward rectification with intracellular metal ion chelator (IRK1 channels [1]): least rectification

SMILES: O=C(O)CN(CC(=O)O)C1CCCCC1N(CC(=O)O)CC(=O)O (stereo not drawn) [CDTA, cyclohexane 1,2-diaminetetraacetic acid]
inward rectification with intracellular metal ion chelator (IRK1 channels [1]): more pronounced

SMILES: NCCCNCCCCNCCCN [spermine]
effective valence of channel block (IRK1 channels [5]; Guo and Lu 2000a): ~5 | Kd (IRK1 channels [5]; Guo and Lu 2000a, read-out: Kd (0 mV) for binding of fully protonated spermine): ~0.1 µM

SMILES: OCCN1CCNCC1 [HEP, hydroxyethyl piperazine]
relative potency of channel block (qualitative) (IRK1 channels [1]; 10 mM HEPES, 3 μM HEP, 0.3 μM piperazine, intracellular): much more potent | Z (valence), fit of the Woodhull equation (IRK1 channels [1]; intracellular blocker): 1.09±0.03 | Kd (IRK1 channels [1]; [6]): 2970 ± 160 µM | inward current relaxation / channel block by extracellular chemical (IRK1 channels [2]; 20 mM extracellular K+): blocked the channels

Continued, in another order:

Z (valence), fit of the Woodhull equation (IRK1 channels [1]; intracellular blocker): 1.08±0.02 | Kd (IRK1 channels [1]; [6]): 270 ± 40 µM | inward current relaxation / channel block by extracellular chemical (IRK1 channels [2]; 20 mM extracellular K+): blocked the channels
SMILES: C1CNCCN1 [piperazine]
inhibition of Kir2.1 (Kir2.1): dramatically inhibits | effect on Kir1.1 (Kir1.1): no effects | effect on Shaker channel (Shaker channel): no effects | sensitivity of mutant Kir2.1 [3]: practically insensitive | adverse effects attending use [4]: Occasional gastrointestinal upset, transient neurological effects, and urticarial reaction | laboratory studies on patients receiving treatment for several days [4]: no abnormality | use during pregnancy [4]: without ill effect

Kd (IRK1 channels [1]; intracellular Mg2+, FIG. 7B, read-out: Kd (0 mV), fit of the Woodhull equation to the Mg2+-inhibition curve): 17 µM | Z (valence), fit of the Woodhull equation (IRK1 channels [1]; intracellular blocker): 1.1
SMILES: [Mg+2] [Mg^2+]

Z (valence), fit of the Woodhull equation (IRK1 channels [1]; intracellular blocker): 1.02±0.02 | inward current relaxation / channel block by extracellular chemical (IRK1 channels [2]; 20 mM extracellular K+): prominent inward current relaxation | inward current relaxation / channel block by extracellular chemical (IRK1 channels [2]; 100 mM extracellular K+): little or no relaxation
SMILES: O=S(=O)(O)CCN1CCN(CCO)CC1 [HEPES, 4-(2 hydroxyethyl)-1-piperazineethanesulfonic acid]

inward rectification with intracellular metal ion chelator (IRK1 channels [1]): more pronounced
SMILES: O=C(O)CN(CCOCCOCCN(CC(=O)O)CC(=O)O)CC(=O)O [EGTA, ethylene glycol bis(β-aminoethyl ether) N,N,N′,N′-tetraacetic acid]

potency of channel block relative to EDTA (IRK1 channels [1]; 0.1 μM ethylenediamine versus 30 mM EDTA, intracellular): > 10,000 fold
SMILES: NCCN [ethylenediamine]
Z (valence) (IRK1 channels [5]; Guo and Lu): 2 | Kd (IRK1 channels [5]; Guo and Lu, read-out: Kd (0 mV)): 1400 µM
